Experimental data taken from US20100298348A1, “Method of Decreasing Ubiquitylated Protein Levels” (priority 2009, published 2010).
Like-named read-outs stand apart in the source and are kept apart here.

Legend:
tau = assay: Tau immunohistochemistry with H7 antibody in 3xTg-AD mice; type: in vivo, mouse
Description: The 3xTg-AD mouse model incorporates both pathological hallmarks of Alzheimer's disease: Aβ amyloid plaques and neurofibrillary tangles. Neurofibrillary tangles consist of accumulates of abnormally phosphorylated tau protein. In the 3xTg-AD mice pathological somato-dendritic accumulation of tau can be seen in immunohistochemistry as part of the disease model phenotype.
ST101 effects on tau distribution and accumulation were explored in immunohistochemistry with H7 anti-tau antibody.

[1] = Chronic and reproductive toxicity studies; type: in vivo
SAM-P8 mice = conditions: vs control mice, cited from earlier work
[2] = system: long-term potentiation (LTP); conditions: cited from earlier work
α-tubulin = assay: Western blot of α-tubulin and acetylated α-tubulin in 3xTg-AD mouse brain; type: in vivo; conditions: 3xTg-AD mice 12 months old, 5 mg/kg/day, 2 months
Description: The overexposed band near the bottom of the figure represents α-tubulin. Above this band a ladder of immuno-reactive bands was detected by the antibody.

3xTg-AD mice = assay: Morris Water Maze in 3xTg-AD mice; type: in vivo, mouse; conditions: 2 months; for Morris Water Maze crosses over former platform location, retention testing / Morris Water Maze latency, retention testing: 3xTg-AD mice, 5 mg/kg/day
Procedure: 3xTg-AD mice of approximately one year of age were treated for 2 months with ST101. An average dose of 5 mg/kg/day was administered in drinking water (calculated dose, based on mean water consumption). Behavioral effects were tested by assessing performance on the Morris Water Maze. Biochemical effects were examined by measuring brain content of Aβ and APP by ELISA and Western Blot.
Behavioral Effects: Performance of 3xTg-AD Mice in the Morris Water Maze (MWM), adapted from Roozendaal et al., Proc. Natl. Acad. Sci. U.S.A. 100: 1328-1333 (2003).
The MWM tests both spatial memory (i.e. hippocampus dependent) and cued learning (i.e. non-hippocampal) in rodents. The maze is a circular tank filled with opaque water. Mice are placed in the water and must swim to find and escape onto a platform submerged 1.5 cm beneath the surface of the water. The time (in seconds) required to find the platform is recorded. Animals rely on visual cues in the room containing the tank in order to find the platform on successive challenges. Training was conducted daily for seven consecutive days.
Retention of training was assessed twice, 24 and 72 hours after the final training trial. Animals were subjected to a 60-second free swim in the tank with the platform removed. Parameters measured included (1) latency: time required to reach the former platform location and (2) crosses: the number of times the animal swam across the former platform location.

[3] = system: rodent models of learning and memory; conditions: cited from earlier work
beta-tubulin = assay: Western blot of beta-tubulin in cynomolgus monkey hippocampus; type: in vivo; conditions: cynomolgus monkeys of Example 19, hippocampal brain samples
Description: (§1) The effects on tubulin were confirmed in the group of cynomolgus monkeys described in example 19.

[4] = system: acetylcholine (ACh) and dopamine; assay: Acetylcholine and dopamine release and extracellular concentrations
acetylated alpha-tubulin = assay: Western blot of acetylated alpha-tubulin in cynomolgus monkey hippocampus; type: in vivo; conditions: cynomolgus monkeys of Example 19, hippocampal brain samples
Description: as §1

huntingtin = assay: Western blot of pS13 huntingtin in 3xTg-AD mouse brain; type: in vivo; conditions: 3xTg-AD mice 12 months old, 5 mg/kg/day, 2 months; in the majority of cases
Procedure: In a first pilot experiment to explore the effect of ST101 on proteins that accumulate in neurodegenerative diseases other than AD, brain extracts from ST101-treated 3xTg-AD mice (S) and control mice (C) mice were analyzed by Western blotting with an antibody directed against huntingtin, specifically against a phospho-epitope around serine 13 (pS13 huntingtin). These extracts are from the same mice as those used in Examples 15 and 16.

APP = assay: Western blot of APP and C-terminal fragments in 3xTg-AD mouse brain; type: in vivo; conditions: 5 mg/kg/day
Procedure: To attempt to determine at what part in the Aβ processing/release pathway ST101 may be active, a series of Western blot analyses of brain extracts from the same mice were conducted. These Westerns blots examined intact APP as well as products of its post-translational processing and subsequent degradation.
FIG. 4 is a Western blot that depicts APP C-terminal fragments detected by antibody CT20 in the brains of ST101-treated (S) 3xTg-AD mice, relative to untreated (C) 3xTg mice-AD.
FIG. 5 is a Western blot that depicts APP and degradation fragments detected by antibody CT20 in the brains of ST101-treated (S) 3xTg-AD mice, relative to untreated (C) 3xTg-AD mice. “CT20” stands for full length APP species, and “Actin” stands for anti-beta-actin antibody as a protein loading control.
FIGS. 10A and 10B are Western blots that depict APP carboxy-terminal fragments detected by antibody CT20 in the brains of ST101-treated (T in FIG. 10A, S in FIG. 10B) 3xTg-AD mice, relative to untreated (C) 3xTg-AD mice. FIG. 10B is from a separate experiment that used the same brain extract used in the experiment for FIG. 10A. Animals were approximately 14.5 months old at sacrifice after 2.5 months of treatment with ST101 at 5 mg/kg/day in drinking water. * denotes a control animal with low levels of CTFs.
FIGS. 10C and 10D are Western blots that depict APP carboxy-terminal fragments detected by an APP C-terminal antibody (Eptitomics #: 15654-1) in the brains of ST101-treated (S) 3xTg-AD mice, relative to untreated (C) 3xTg-AD mice. FIG. 10D is a lighter exposure of the Western blot in FIG. 10C. Animals were approximately 14.5 months old at sacrifice after 2.5 months of treatment with ST101 at 5 mg/kg/day in drinking water.
Brain extracts from 12-month-old 3xTg-AD mice that had been treated with ST101 (S) at 5/mg/kg/day in drinking water over 2 months were analyzed in Western blots using a C-terminal APP antibody (CT-20 Calbiochem).

[5] = 3xTg-AD mice ~12 months old, 2 months, antibody CT20

O=C1N=C2C=CC=CN2C12Cc1ccccc1C2 [ST101, spiro(imidazo[1,2-a]pyridin-2(3H)-one-3,2′-indan)]
neuronal loss, Hematoxylin/Eosin stained control sections (tau): no neuronal loss
pathological somato-dendritic tau staining (tau; hippocampus, H7 anti-tau antibody): clear reduction
toxicity in chronic toxicity studies ([1]; high doses): very little toxicity
toxicity in reproductive toxicity studies ([1]; monkey, in vivo): very little toxicity
safety in rodent and monkey toxicity studies ([1]; up to 6 months, doses up to approximately 100-fold higher than in 3xTg-AD mice): proven safe
senescence scores (SAM-P8 mice; 16 weeks of treatment): significant improvement
senescence scores (SAM-P8 mice; 32 weeks of treatment): significant improvement
long-term potentiation (LTP) [2]: efficacy in increasing long-term potentiation (LTP)
tubulin degradation products (α-tubulin; acetylated α-tubulin antibody): reduced
high molecular weight ladder of α-tubulin immuno-reactive bands (presumably ubiquitylated tubulin) (α-tubulin; α-tubulin antibody): either absent or significantly reduced
Morris Water Maze latency during training (3xTg-AD mice; 3xTg-AD mice ~1 year old, 5 mg/kg/day in drinking water, successive days of 7-day training, vs controls): greater reductions in latency
Morris Water Maze crosses over former platform location, retention testing (3xTg-AD mice; 24 hours after final training): increases in crosses
Morris Water Maze latency, retention testing (3xTg-AD mice; 24 hours after final training): reductions in latency
Morris Water Maze crosses over former platform location, retention testing (3xTg-AD mice; 72 hours after final training): increases in crosses
Morris Water Maze latency, retention testing (3xTg-AD mice; 72 hours after final training): reductions in latency
memory deficits induced by chemical amnesic agents ([3]; methamphetamine, MK-801, scopolamine): attenuates
age-impaired memory ([3]; rodent models): significantly improves
beta-tubulin degradation products (beta-tubulin): increase
nicotine-stimulated release of acetylcholine (ACh) [4]: potentiates
extracellular ACh concentrations ([4]; cerebral cortex): increases
extracellular concentration of ACh ([4]; hippocampus): increases
extracellular concentration of dopamine ([4]; hippocampus): increases
acetylated alpha-tubulin fragments (acetylated alpha-tubulin): reduction
huntingtin protein levels (pS13 huntingtin) (huntingtin): significantly reduced
AICD fragment (APP intracellular domain) (APP; 3xTg-AD mice 12 months old, 2 months, antibody CT-20): visible in brain extracts from ST101 treated mice (S) but not in control mice (C)
C83 C-terminal APP fragment (APP; [5]): substantial decrease
C99 C-terminal APP fragment (APP; [5]): substantial decrease
full-length APP species, band shift (APP; [5]): slightly lowered molecular weight
major APP degradation intermediate (~50 kDa) (APP; [5]): disappearance or significant reduction
novel C-terminal APP fragment of about 17 kDa (APP; [5]): appearance
17 kDa APP fragment (APP; 3xTg-AD mice ~14.5 months old, 2.5 months): lack of detection
C99 fragment (APP; 3xTg-AD mice ~14.5 months old, 2.5 months, Epitomics C-terminal APP antibody): reduction
APP CTFs (APP; 3xTg-AD mice ~14.5 months old, 2.5 months, antibody CT20): significant effect of reduction
C83 fragment (APP; 3xTg-AD mice ~14.5 months old, 2.5 months, compared with 12-month old mice): not reduced to the same degree
